Data published in patent US9783551B2, “Pyranochromenyl phenol derivative, and pharmaceutical composition for treating metabolic syndrome or inflammatory disease” (GLACEUM, INC., priority 2013, dated 2017).

Experiments:
DIO mice [1] = experiment: Anti-obesity effect for DIO mice (body weight); format: in vivo, C57BL/6 mice; settings: Mus musculus, 672 h, 4 weeks, oral gavage once daily
Protocol: (§1) Five-week-old female C57BL/6 mice (Narabio Co., Ltd.) were purchased and fed with only high-fat diet for at least 10 weeks to produce diet induced obesity ([…]) mice. Samples were exactly taken from Preparation Example 1 (glabridin) and the compounds of Examples of the present invention (Compounds 1 to 5, 7, 9, 11, 14 to 16, 21, and 23) according to the administration dose and put into Falcon tubes, 3 ml of a 0.5% methyl cellulose aqueous solution was added thereto and a vortex mixer was used to primarily mix the ingredients in a soft manner, and then a homogenizer (30,000 rpm, Ultra-Turrax® T10 Basic, IKA) was used to treat the sample for 3 minutes while 1.5 ml of a 0.5% methyl cellulose aqueous solution was added thereto. The sample thus prepared was administered through oral gavage using a disposable plastic syringe once daily for 28 days (4 weeks). The body weight was measured twice a week while the DIO mice were bred in this manner. Based on the data thus calculated, the anti-obesity effect (%) was calculated according to the equation defined as follows. Anti-Obesity Effect={(Body weight of control group)−(Body weight of experimental group)}/(Body weight of control group)×100

PTP1B = PTP1B (Homo sapiens (Human), UniProt P18031); experiment: Experiment of PTP1B inhibition (p-NPP dephosphorylation); format: biochemical; settings: 2 mM p-NPP substrate, 30° C., 30 minutes
Chain of PTP1B (P18031 whole entry, species assumed): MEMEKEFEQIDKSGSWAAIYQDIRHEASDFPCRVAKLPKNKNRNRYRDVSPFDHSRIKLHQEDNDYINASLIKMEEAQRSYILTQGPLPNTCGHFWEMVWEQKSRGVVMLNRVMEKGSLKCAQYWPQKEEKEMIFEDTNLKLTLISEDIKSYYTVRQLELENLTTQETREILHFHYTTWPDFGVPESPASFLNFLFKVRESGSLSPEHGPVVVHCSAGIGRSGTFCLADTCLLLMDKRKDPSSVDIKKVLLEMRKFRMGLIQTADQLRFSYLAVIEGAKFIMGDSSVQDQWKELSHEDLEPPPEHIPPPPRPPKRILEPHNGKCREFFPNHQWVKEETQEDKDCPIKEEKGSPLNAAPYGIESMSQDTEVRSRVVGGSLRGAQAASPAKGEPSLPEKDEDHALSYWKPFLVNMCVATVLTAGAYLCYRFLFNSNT
Excerpt: With respect to PTP1B, the degrees of inhibition (IC50 The half maximal inhibitory concentration) of glabridin, and compounds of Preparation Example 2 (Compound 1), Example 2 (Compound 3), Example 3 (Compound 4), Example 4 (Compound 5), Example 13 (Compound 14), Example 14 (Compound 15), Example 15 (Compound 16), Example 17 (Compound 18), Example 18 (Compound 19) and Example 20 (Compound 21) were compared to each other. For this purpose, the degree of inhibition activity for PTP1B was investigated by using 2 mM p-nitrophenyl phosphate (p-NPP) as a substrate to measure the dephosphorylation degree. First, PTP1B diluted with distilled water was reacted with 2 mM p-nitrophenyl phosphate {p-NPP, 0.1 M NaCl, 1 mM EDTA, 50 mM citrate pH 6.0, and 1 mM dithiothreitol (DTT)} and Compound 1 at various concentrations at 30° C. for 30 minutes, and then the reaction was terminated with a 1 N-sodium hydroxide (NaOH) solution. The absorbance of the samples thus prepared was measured to confirm the inhibition degree (IC50: The half maximal inhibitory concentration) for PTP1B activity according to the concentration of Compound 1. Even for glabridin, Compound 3, Compound 4, Compound 5, Compound 14, Compound 15, Compound 16, Compound 18, Compound 19, and Compound 21, the same measurement was performed.

DIO mice [2] = experiment: Organ weights and blood biochemistry of DIO mice after 28 days of administration; format: in vivo, C57BL/6 mice
Protocol: as §1
After the experiment was performed for 28 days (4 weeks) as described above, blood was simultaneously taken while the experimental animal was finally sacrificed, and each of the organs (liver, heart, kidney, pancreas, fat tissues and the like) was removed to measure the weight and observe peculiar matters.
In Table 3, { }, ( ) and the like were used in order to differentiate experiments which had been performed at different periods. Experiments without the parenthesis were those simultaneously performed under the same conditions.

RAW264.7 macrophages = experiment: RAW264.7 macrophage NO assay (LPS-induced NO production, Griess reagent); format: cell-based
Protocol: (§2) After the pretreatment, the MTT (Sigma, M2128) reagent at a concentration of 0.5 mg/ml was further added thereto. After the cells were cultured in a 5% CO2 incubator for 4 hours, the supernatant was discarded, 150 μl of DMSO was added and was shaken for 30 minutes, and an ELISA micro plate reader (Bio Rad Laboratories Inc., California, USA, Model 680) was used to measure the absorbance at a wavelength of 540 nm. All the experimental values were calculated as an average value of three repeated experimental values of the cell protection rate for the control group, and an experiment of suppressing the NO production for each compound was carried out at a concentration in which no cytotoxicity was shown.
(§3) After the reaction, an ELISA micro plate reader (Bio Rad Laboratories Inc., California, USA, Model 680) was used to measure the absorbance at a wavelength of 540 nm. The suppression rate was calculated as a difference in amount of NO produced between the control group and the experimental group, and as shown in the following Table 7, Compounds 4, 5, 15, 16, 18, and the like of the present invention were excellent in the effect of suppressing the production of NO.

BV2 microglia cells = experiment: BV2 cell NO assay (LPS-induced NO production, Griess reagent); format: cell-based; settings: Mus musculus, BV-2, LPS 1 μg/ml, 24 hours
Protocol: as §2, with “pretreatment, 0.5 mg/ml of” for “pretreatment,”, “reagent” for “reagent at a concentration of 0.5 mg/ml”, “incubator,” for “incubator for 4 hours,”
as §3, with “6 and FIG. 6,” for “7,”, “NO, and the effect is also about 5 times to about 9 times better than that of glabridin.” for “NO.”

[3] = 150 mg/kg, experiment without parenthesis

COCCc1ccc(C2COc3c(ccc4c3CCC(C)(C)O4)C2)c(O)c1 (stereo not shown) [Compound 9, 3-(2-hydroxy-4-(2-methoxyethyl)phenyl)-8,8-dimethyl-2,3,4,8,9,10-hexahydropyrano [2,3-f] chromene]
inhibition in vivo at 150 mg/kg (DIO mice [1]): 10%

CCCCCOc1ccc(C2COc3c(ccc4c3CCC(C)(C)O4)C2)c(O)c1 (stereo not shown) [Compound 19, 3-(2-hydroxy-4-n-pentoxyphenyl)-8,8-dimethyl-2,3,4,8,9,10-hexahydropyrano [2,3-f] chromene]
IC50 (PTP1B): 1.2 µM

CC1(C)CCc2c(ccc3c2OC[C@@H](c2ccc(O)cc2O)C3)O1 [Compound 1, 3″,4″-dihydroglabridin]
inhibition in vivo at 150 mg/kg (DIO mice [1]): 8% | IC50 (PTP1B): 46 µM | ALT (U/L) (DIO mice [2]; [3]): 34 U/L | AST (U/L) (DIO mice [2]; [3]): 93 U/L | BMI (DIO mice [2]; [3]): 3.8 | FFA (μEq/L) (DIO mice [2]; [3]): 1400 μEq/L | Fat (g), weight of fat removed around the epididymis and the kidney (DIO mice [2]; [3]): 2.07 g | LDL (DIO mice [2]; [3]): 11 mg/dL | Liver (g), weight of liver (DIO mice [2]; [3]): 1.24 g

COc1ccc(C2COc3c(ccc4c3CCC(C)(C)O4)C2)c(O)c1 (stereo not shown) [Compound 14, 3-(2-hydroxy-4-methoxyphenyl)-8,8-dimethyl-2,3,4,8,9,10-hexahydropyrano [2,3-f] chromene]
inhibition in vivo at 150 mg/kg (DIO mice [1]): 12% | IC50 (PTP1B): 6.5 µM | ALT (U/L) (DIO mice [2]; [3]): 51 U/L | AST (U/L) (DIO mice [2]; [3]): 131 U/L | BMI (DIO mice [2]; [3]): 3.9 | FFA (μEq/L) (DIO mice [2]; [3]): 2160 μEq/L | Fat (g), weight of fat removed around the epididymis and the kidney (DIO mice [2]; [3]): 2.23 g | LDL (DIO mice [2]; [3]): 13 mg/dL | Liver (g), weight of liver (DIO mice [2]; [3]): 1.19 g

CCCCOc1ccc(C2COc3c(ccc4c3CCC(C)(C)O4)C2)c(O)c1 (stereo not shown) [Compound 18, 3-(2-hydroxy-4-butoxyphenyl)-8,8-dimethyl-2,3,4,8,9,10-hexahydropyrano [2,3-f] chromene]
IC50 (RAW264.7 macrophages; Mus musculus, RAW264.7, NO production, LPS 1 μg/ml, 24 hours): 5.6 µM | effect of suppressing the production of NO (RAW264.7 macrophages; RAW264.7 macrophages, in words): excellent | IC50 (PTP1B): 3.4 µM | IC50 (BV2 microglia cells): 2.8 µM

COCOc1ccc(C2COc3c(ccc4c3CCC(C)(C)O4)C2)c(O)c1 (stereo not shown) [Compound 21, 3-(2-hydroxy-4-(methoxymethoxy)phenyl)-8,8-dimethyl-2,3,4,8,9,10-hexahydropyrano [2,3-f] chromene]
inhibition in vivo at 150 mg/kg (DIO mice [1]): 16% | IC50 (PTP1B): 2.3 µM | ALT (U/L) (DIO mice [2]; [3]): 46 U/L | AST (U/L) (DIO mice [2]; [3]): 104 U/L | BMI (DIO mice [2]; [3]): 3.6 | FFA (μEq/L) (DIO mice [2]; [3]): 1520 μEq/L | Fat (g), weight of fat removed around the epididymis and the kidney (DIO mice [2]; [3]): 2.13 g | LDL (DIO mice [2]; [3]): 12 mg/dL | Liver (g), weight of liver (DIO mice [2]; [3]): 1.11 g

Cc1cc(O)c(C2COc3c(ccc4c3CCC(C)(C)O4)C2)cc1C (stereo not shown) [Compound 11, 3-(2-hydroxy-4,5-dimethylphenyl)-8,8-dimethyl-2,3,4,8,9,10-hexahydropyrano [2,3-f] chromene]
inhibition in vivo at 150 mg/kg (DIO mice [1]): 8%

CC1(C)CCc2c(ccc3c2OCC(c2ccccc2O)C3)O1 (stereo not shown) [Compound 2, 3-(2-hydroxyphenyl)-8,8-dimethyl-2,3,4,8,9,10-hexahydropyrano [2,3-f] chromene]
inhibition in vivo at 200 mg/kg (DIO mice [1]): 8%

Cc1ccc(C2COc3c(ccc4c3CCC(C)(C)O4)C2)c(O)c1 (stereo not shown) [Compound 3, 3-(2-hydroxy-4-methylphenyl)-8,8-dimethyl-2,3,4,8,9,10-hexahydropyrano [2,3-f] chromene]
inhibition in vivo at 200 mg/kg (DIO mice [1]): 19% | IC50 (PTP1B): 7 µM | ALT (U/L) (DIO mice [2]; 200 mg/kg, { } experiment): {73} U/L | AST (U/L) (DIO mice [2]; 200 mg/kg, { } experiment): {152} U/L | BMI (DIO mice [2]; 200 mg/kg, { } experiment): {3.5} | FFA (μEq/L) (DIO mice [2]; 200 mg/kg, { } experiment): {2390} μEq/L | Fat (g), weight of fat removed around the epididymis and the kidney (DIO mice [2]; 200 mg/kg, { } experiment): {1.62} g | LDL (mg/dL) (DIO mice [2]; 200 mg/kg, { } experiment): {22} mg/dL | Liver (g), weight of liver (DIO mice [2]; 200 mg/kg, { } experiment): {1.53} g

CCC1(CC)CCc2c(ccc3c2OCC(c2ccc(OC)cc2O)C3)O1 (stereo not shown) [Compound 23, 3-(2-hydroxy-4-methoxyphenyl)-8,8-diethyl-2,3,4,8,9,10-hexahydropyrano [2,3-f] chromene]
inhibition in vivo at 200 mg/kg (DIO mice [1]): 11%

CCCCc1ccc(C2COc3c(ccc4c3CCC(C)(C)O4)C2)c(O)c1 (stereo not shown) [Compound 7, 3-(2-hydroxy-4-butylphenyl)-8,8-dimethyl-2,3,4,8,9,10-hexahydropyrano [2,3-f] chromene]
inhibition in vivo at 150 mg/kg (DIO mice [1]): 14%
